Patent publication US9499495B2, “Quinazolines and azaquinazolines as dual inhibitors of RAS/RAF/MEK/ERK and PI3K/AKT/PTEN/mTOR pathways” (Asana Biosciences, LLC, priority 2013, dated 2016)

Columns and labels:
B-RAFV600E = target: T1, B-RAFV600E (Homo sapiens, UniProt P15056, V600E); experiment: B-RAFV600E radiometric assay; format: biochemical; details: read-out: Kinase assay B-Raf
T1 construct: purchased Millipore, USA 14-557
Method: Compound inhibition for B-RAFV600E was determined through radiometric assay using a BRAF enzyme (Catalog No. 14-557, Millipore, USA) and MEK-K97M protein as a substrate (Catalog No. 0785-0000-1, ProqQinase GmbH, Germany). The B-RAF kinase catalyzes the phosphorylation of MEK protein in the presence of gamma ATP (PLC-101, Jonaki, CCMB, Hyderabad), cold ATP and Mg^2+.
The phosphorylated protein product is detected by the scintillation counter Topcount® machine (Perkin Elmer). This assay has been adapted from the method previously reported by Yeh et al. (2007, Clinical Cancer Research; 13, 1576-1583). The assay measures the B-RAF mediated transfer of 32P from the gamma position of radiolabeled ATP onto MEK1-KD. The labeled phosphorylated protein was measured in MicroBeta® Trilux Counter (Perkin Elmer). The assay was validated with reference compounds RAF1 Kinase Inhibitor I and ZM 336372 inhibitor which are reported to be inhibitors of B-RAF enzyme (Lackey, 2000, Medicinal Chemistry Letters; 10(3):223-226; Kupcho, “Fluorescent High throughput kinase cascade assays for inhibitor characterization, RAF-MEK-ERK pathway, www.invitrogen.com, and Hall-Jackson, 1999, Chemical Biology; 6(8):559-568). B-RAF enzyme mixture (13 μL) was added to compound wells containing 2 μL of the NCE in 1% DMSO and incubated for 45 min at rt on a shaking incubator at 300 rpm. MEK-K97M (0.5 μg) and cold ATP to a final concentration of 5 μM, and hot ATP 0.1 μCi in a volume of 10 μL was added to each well and incubated for 2 h at rt on a shaking incubator at 300 rpm. The reaction was stopped by addition of […] (13 μL) containing ATP (1 mM: 495 μL 1N HCl and 5 μL 100 mM ATP). Aliquot (30 μL) was then transferred to the center of a 2 cm×2 cm P81 paper. P81 paper was washed 8×5 min each with ortho-phosphoric acid (0.5%). P81 papers are washed twice with acetone for […] Assay squares were allowed to dry for […] at 37° C. P81 paper are transferred to Optiplate™ (Perkin Elmer) and counted in a Topcount® counter (Perkin Elmer). Data was plotted against the compound concentration to generate dose-response curves and IC50 values were determined using a sigmoidal dose response curve fit GraphPad Prism® v5 software.

mTOR kinase = target: T2, mTOR kinase (Homo sapiens, UniProt P42345); experiment: mTOR kinase TR-FRET assay; format: biochemical
T2 construct: purchased Millipore, US
T2 sequence (P42345 1362-2549 limits assumed): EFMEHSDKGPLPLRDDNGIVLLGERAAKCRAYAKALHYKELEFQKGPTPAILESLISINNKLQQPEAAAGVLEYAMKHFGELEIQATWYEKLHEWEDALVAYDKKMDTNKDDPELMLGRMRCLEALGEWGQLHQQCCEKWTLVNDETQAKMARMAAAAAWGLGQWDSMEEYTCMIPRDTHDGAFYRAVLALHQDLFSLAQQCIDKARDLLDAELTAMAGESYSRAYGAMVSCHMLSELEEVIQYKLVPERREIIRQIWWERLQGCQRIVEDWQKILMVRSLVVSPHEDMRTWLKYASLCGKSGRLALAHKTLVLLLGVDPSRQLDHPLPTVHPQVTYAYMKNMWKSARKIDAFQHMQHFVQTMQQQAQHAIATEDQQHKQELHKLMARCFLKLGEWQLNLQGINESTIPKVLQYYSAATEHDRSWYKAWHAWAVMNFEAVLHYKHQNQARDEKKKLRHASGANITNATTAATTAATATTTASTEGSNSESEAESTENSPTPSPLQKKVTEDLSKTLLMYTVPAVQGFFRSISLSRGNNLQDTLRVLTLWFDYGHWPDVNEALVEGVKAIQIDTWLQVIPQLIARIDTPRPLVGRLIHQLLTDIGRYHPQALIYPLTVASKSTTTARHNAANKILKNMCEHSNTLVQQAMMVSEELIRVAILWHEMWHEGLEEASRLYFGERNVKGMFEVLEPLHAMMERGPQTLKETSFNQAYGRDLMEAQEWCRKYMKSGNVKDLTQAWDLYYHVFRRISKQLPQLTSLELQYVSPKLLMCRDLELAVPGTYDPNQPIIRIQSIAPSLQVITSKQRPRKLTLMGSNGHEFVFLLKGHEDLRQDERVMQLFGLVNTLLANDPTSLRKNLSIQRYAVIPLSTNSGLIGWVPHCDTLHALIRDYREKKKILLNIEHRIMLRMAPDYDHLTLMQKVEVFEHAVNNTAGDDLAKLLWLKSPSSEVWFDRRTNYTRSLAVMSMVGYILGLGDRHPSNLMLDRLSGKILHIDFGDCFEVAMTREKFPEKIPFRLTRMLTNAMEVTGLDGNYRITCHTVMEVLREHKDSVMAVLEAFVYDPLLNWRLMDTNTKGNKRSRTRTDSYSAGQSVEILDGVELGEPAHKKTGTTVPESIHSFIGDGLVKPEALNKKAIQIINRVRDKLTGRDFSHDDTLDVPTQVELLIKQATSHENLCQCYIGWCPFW
Method: Compound inhibition for mTOR kinase was determined by homogeneous TR-FRET assay using ULight-p70 S6K (Thr 389) peptide as substrate. mTOR enzyme (Millipore, US; […]) was used in the assay. The reaction buffer was HEPES (50 mM, pH 7.5), EGTA (1 mM), and MnCl2 (3 mM). Test compound was pre-incubated with mTOR for 30 min followed by 50 nM ULight-p70 S6K (Thr 389) peptide along with ATP (20 μM).
After incubating the reaction mixture for 30 min, Eu-labeled anti-phospho-substrate antibody (1 nM, Perkin Elmer, USA) was added. Fluorescence emission at […] was measured upon excitation at 340 nm. The compound dilution was carried out in 100% DMSO followed by a buffer dilution. The kinase reaction was incubated for 1 h at rt followed by the addition of substrate-ATP mix and incubated at rt for 1 h. The reaction was terminated by the addition of EDTA followed by the addition of detection mix. IC50 values were determined using a sigmoidal dose response curve fit, GraphPad Prism® v5 software.

pERK in A375 cells = experiment: In Cell Western (ICW) assay, pERK in A375 cells; format: cell-based; details: Homo sapiens, A-375, 3 h treatment
Method: Cell lines A375, A2058 and RKO obtained from the ATCC as provided above, were grown, and after attaining ˜80% confluency were trypsinized, centrifuged and resuspended in fresh media. The cells were seeded at the specified density (20,000 to 50,000) in a 96-well format black-well clear bottom plate (Corning) and incubated overnight at 37° C. in a 5% CO2 incubator. The next day, compound dilutions of test compounds were prepared in 100% DMSO followed by dilutions in respective media. Treatment of test compounds was performed for 3 h at 37° C. in 5% CO2 incubator. Following 3 h drug treatment, the conditional media was discarded and the cells were washed once with cPBS (PBS containing 0.1% magnesium chloride hexahydrate and 0.1% anhydrous calcium chloride) and fixed with 4% paraformaldehyde in cPBS for 1 h at rt. After fixing, the cells were given three washes using cPBST (cPBS containing 0.1% Triton™ X-100 reagent) and then blocked using blocking solution (5% skimmed milk powder or 5% BSA prepared in cPBST) for 2 h at rt with shaking at 300 rpm. The cells were again washed thrice with cPBST and incubated with primary antibody phospho-p44/42 MAPK(Erk1/2)(Thr202/204) antibody (Cell Signaling, Catalog # 9101L), phospho S6 ribosomal protein (Cell Signaling, Catalog #4858L), phospho AKT (Thr 308) (Cell Signaling, Catalog #9275) or phospho AKT (Ser 473) (Cell Signaling, Catalog #4060L) in specified dilutions (1:500-1:2500), prepared in respective blocking solutions, in a racker overnight at 4° C. The next day, the cells were washed with 1× Delfia® wash buffer (4×1 wash) and incubated with secondary antibody (Delfia®-Eu-N1 labeled anti-rabbit antibody; PerkinElmer, Catalog #AD0105; dilutions: 1:2000 to 1:6000 in Delfia® assay buffer (PerkinElmer, Catalog #1244-111)) for 2 h at rt in the dark at 300 rpm. The cells were then given four washes with 1× Delfia® wash buffer and incubated with Wallac Delfia® Enhancement solution (100 μL; PerkinElmer, Catalog #1244-105) for 20 min at rt in the dark at 300 rpm. The fluorescence emission was then read at 615 nm with an excitation wavelength of 340 nm using a Victor V5 Fluorometer (Perkin Elmer, US). The cells were then washed once with 1×cPBS and incubated with 100 μL of 0.5 mg/mL of Hoechst 33258 dye prepared in cPBS and read at 460 nm with 355 nm excitation, thereby evaluating the correction factor.
The % inhibition for the test compounds of formula (I) (new chemical entities (NCEs)) was calculated keeping DMSO control as 0% and the IC50 values were determined using sigmoidal dose response curve fit in GraphPad Prism® v5 software.

A375 cells = experiment: XTT assay for cell viability, A375 cells; format: cell-based; details: Homo sapiens, A-375, 72 h
Method: Cell lines (A375 ATCC No. CRL-1619, A2058 ATCC No. CRL-11147 and RKO ATCC No. CRL-2577, American Type Culture Collection (ATCC), Manassas Va.) once attaining ˜80% confluency were trypsinized, centrifuged and resuspended in fresh media. Cells (1000-2000/per well) were seeded in 96-well plate and incubated over-night at 37° C. in a 5% CO2 incubator. Compound dilutions were prepared in 100% DMSO followed by dilutions in the respective media. The cells were treated with NCEs for 72 h at 37° C. in 5% CO2 incubator. After 72 h, freshly prepared XTT (1 mg/ml)/PMS (25 μM) solution was added, incubated for 2 to 3 h at 37° C. and the absorbance was measured at 450 nm using an ELISA plate reader. Keeping DMSO control as 100%, the effect of the compound to inhibit the cell proliferation was calculated and the GI50 values were determined using sigmoidal dose response curve fit in GraphPad Prism® v5 software.

T1 sequence (P15056 416-766 V600E limits assumed): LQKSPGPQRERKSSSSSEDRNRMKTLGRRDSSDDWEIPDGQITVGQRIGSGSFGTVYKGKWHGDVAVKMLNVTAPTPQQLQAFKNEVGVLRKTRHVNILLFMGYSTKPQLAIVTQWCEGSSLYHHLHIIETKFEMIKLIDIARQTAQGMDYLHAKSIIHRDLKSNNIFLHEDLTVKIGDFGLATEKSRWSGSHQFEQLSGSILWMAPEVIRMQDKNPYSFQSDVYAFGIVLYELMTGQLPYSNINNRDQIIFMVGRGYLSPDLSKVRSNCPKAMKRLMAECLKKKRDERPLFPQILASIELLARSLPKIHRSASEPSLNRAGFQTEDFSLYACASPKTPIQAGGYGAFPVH

| SMILES | IC50 (B-RAFV600E) [nM] | IC50 (mTOR kinase) [nM] | IC50 (pERK in A375 cells) [nM] | IC50 (A375 cells) [nM] |
| --- | --- | --- | --- | --- |
| CCCS(=O)(=O)Nc1ccc(F)c(-c2cc(OC)c3nc(-c4cnc(N)nc4)nc(N4CCOCC4)c3c2)c1F [Example 6, N-(3-(2-(2-aminopyrimidin-5-yl)-8-methoxy-4-morpholinoquinazolin-6-yl)-2,4-difluorophenyl)propane-1-sulfonamide] | 1 to 100 | 1 to 100 | 100 to 1000 | 100 to 1000 |
| COc1cc(-c2cccc(NS(=O)(=O)c3c(F)cccc3F)c2F)cc2c(N3CCOCC3)nc(-c3ccc(NC(=O)NCCO)cc3)nc12 [Example 12, 2,6-difluoro-N-(2-fluoro-3-(2-(4-(3-(2-hydroxyethyl)ureido)phenyl)-8-methoxy-4-morpholinoquinazolin-6-yl)phenyl)benzenesulfonamide] | 100 to 1000 | 1 to 100 | 1000 to 10000 | – |
| COc1cc(-c2cccc(NS(=O)(=O)c3c(F)cccc3F)c2F)cc2c(N3CCOCC3)nc(-c3cnc4[nH]ccc4c3)nc12 [Example 16, 2,6-difluoro-N-(2-fluoro-3-(8-methoxy-4-morpholino-2-(1H-pyrrolo[2,3-b]pyridin-5-yl)quinazolin-6-yl)phenyl)benzenesulfonamide] | 100 to 1000 | 100 to 1000 | 100 to 1000 | – |
| CNC(=O)Nc1ccc(-c2nc(N3CCOCC3)c3cc(-c4cccc(NS(=O)(=O)CCCF)c4F)cc(OC)c3n2)cc1 [Example 32, 3-fluoro-N-(2-fiuoro-3-(8-methoxy-2-(4-(3-methylureido)phenyl)-4-morpholinoquinazolin-6-yl)phenyl)propane-1-sulfonamide] | 100 to 1000 | 1 to 100 | 100 to 1000 | – |
| Nc1ccc(-c2nc(N3CCOCC3)c3cc(-c4cccc(NS(=O)(=O)CCCF)c4F)cc(OCC4CC4)c3n2)cn1 [Example 57, N-(3-(2-(6-aminopyridin-3-yl)-8-(cyclopropylmethoxy)-4-morpholinoquinazolin-6-yl)-2-fluorophenyl)-3-fluoropropane-1-sulfonamide] | 1 to 100 | 100 to 1000 | 1 to 100 | – |
| Nc1ccc(-c2nc(N3CCOCC3)c3cc(-c4cccc(NS(=O)(=O)CCCF)c4F)cc(OCCO)c3n2)cn1 [Example 58, N-(3-(2-(6-aminopyridin-3-yl)-8-(2-hydroxyethoxy)-4-morpholinoquinazolin-6-yl)-2-fluorophenyl)-3-fluoropropane-1-sulfonamide] | 1 to 100 | 1 to 100 | 100 to 1000 | – |
| CCNc1ccc(-c2nc(N3CCOCC3)c3nc(-c4cccc(NS(=O)(=O)CCCF)c4F)ccc3n2)cn1 [Example 123, N-(3-(2-(6-(ethylamino)pyridin-3-yl)-4-morpholinopyrido[3,2-d]pyrimidin-6-yl)-2-fluorophenyl)-3-fluoropropane-1-sulfonamide] | 1 to 100 | 1 to 100 | 1 to 100 | – |
| COc1cc(-c2cccc(NS(=O)(=O)CCCF)c2F)cc2c(N3CCOCC3)nc(-c3ccc(NC(C)=O)cc3)nc12 [Example 125, N-(4-(6-(2-fluoro-3-(3-fluoropropylsulfonamido)phenyl)-8-methoxy-4-morpholinoquinazolin-2-yl)phenyl)acetamide] | 100 to 1000 | 1 to 100 | 1 to 100 | – |
| C[C@@H]1COCCN1c1nc(-c2cnc(N)nc2)nc2c(OCCF)cc(-c3cccc(NS(=O)(=O)CCCF)c3F)cc12 [Example 141, (R)-N-(3-(2-(2-aminopyrimidin-5-yl)-8-(2-fluoroethoxy)-4-(3-methylmorpholino)quinazolin-6-yl)-2-fluorophenyl)-3-fluoropropane-1-sulfonamide] | 1 to 100 | 100 to 1000 | – | – |
| C[C@@H]1COCCN1c1nc(-c2cnc(N)c(F)c2)nc2c(OCCF)cc(-c3cccc(NS(=O)(=O)CCCF)c3F)cc12 [Example 142, (R)-N-(3-(2-(6-amino-5-fluoropyridin-3-yl)-8-(2-fluoroethoxy)-4-(3-methylmorpholino)quinazolin-6-yl)-2-fluorophenyl)-3-fluoropropane-1-sulfonamide] | 1 to 100 | 100 to 1000 | – | – |
| COc1cc(-c2cccc(NS(=O)(=O)CCCF)c2F)cc2c(N3CCOC[C@H]3C)nc(-c3cnc(N)cn3)nc12 [Example 143, (R)-N-(3-(2-(5-aminopyrazin-2-yl)-8-methoxy-4-(3-methylmorpholino)quinazolin-6-yl)-2-fluorophenyl)-3-fluoropropane-1-sulfonamide] | 1 to 100 | 100 to 1000 | – | – |
| COc1cc(-c2cccc(NS(=O)(=O)CCCF)c2F)cc2c(N3CCOC[C@H]3C)nc(-c3cnc(N)cc3C#N)nc12 [Example 144, (R)-N-(3-(2-(6-amino-4-cyanopyridin-3-yl)-8-methoxy-4-(3-methylmorpholino)quinazolin-6-yl)-2-fluorophenyl)-3-fluoropropane-1-sulfonamide] | 1 to 100 | 100 to 1000 | – | – |
